Assay results taken from patent publication US20210038607A1, “OXADIAZOLYLTHIOPHENE DERIVATIVES USEFUL AS HISTONE DEACETYLASE INHIBITORS” (Karus Therapeutics Limited, priority 2018, published 2021).

Tests used:
Recombinant human HDAC6 = target: T1, Recombinant human HDAC6 (Homo sapiens, UniProt Q9UBN7); experiment: HDAC6 biochemical assay, AMC-labeled peptide substrate; details: HDAC6; read-out: HDAC Isoform IC50 (nM) 6
T1 construct: full length, MW=159 kDa; GST (N); host or cells: Sf9 insect cells (baculovirus)
T1 sequence (Q9UBN7 1-1215): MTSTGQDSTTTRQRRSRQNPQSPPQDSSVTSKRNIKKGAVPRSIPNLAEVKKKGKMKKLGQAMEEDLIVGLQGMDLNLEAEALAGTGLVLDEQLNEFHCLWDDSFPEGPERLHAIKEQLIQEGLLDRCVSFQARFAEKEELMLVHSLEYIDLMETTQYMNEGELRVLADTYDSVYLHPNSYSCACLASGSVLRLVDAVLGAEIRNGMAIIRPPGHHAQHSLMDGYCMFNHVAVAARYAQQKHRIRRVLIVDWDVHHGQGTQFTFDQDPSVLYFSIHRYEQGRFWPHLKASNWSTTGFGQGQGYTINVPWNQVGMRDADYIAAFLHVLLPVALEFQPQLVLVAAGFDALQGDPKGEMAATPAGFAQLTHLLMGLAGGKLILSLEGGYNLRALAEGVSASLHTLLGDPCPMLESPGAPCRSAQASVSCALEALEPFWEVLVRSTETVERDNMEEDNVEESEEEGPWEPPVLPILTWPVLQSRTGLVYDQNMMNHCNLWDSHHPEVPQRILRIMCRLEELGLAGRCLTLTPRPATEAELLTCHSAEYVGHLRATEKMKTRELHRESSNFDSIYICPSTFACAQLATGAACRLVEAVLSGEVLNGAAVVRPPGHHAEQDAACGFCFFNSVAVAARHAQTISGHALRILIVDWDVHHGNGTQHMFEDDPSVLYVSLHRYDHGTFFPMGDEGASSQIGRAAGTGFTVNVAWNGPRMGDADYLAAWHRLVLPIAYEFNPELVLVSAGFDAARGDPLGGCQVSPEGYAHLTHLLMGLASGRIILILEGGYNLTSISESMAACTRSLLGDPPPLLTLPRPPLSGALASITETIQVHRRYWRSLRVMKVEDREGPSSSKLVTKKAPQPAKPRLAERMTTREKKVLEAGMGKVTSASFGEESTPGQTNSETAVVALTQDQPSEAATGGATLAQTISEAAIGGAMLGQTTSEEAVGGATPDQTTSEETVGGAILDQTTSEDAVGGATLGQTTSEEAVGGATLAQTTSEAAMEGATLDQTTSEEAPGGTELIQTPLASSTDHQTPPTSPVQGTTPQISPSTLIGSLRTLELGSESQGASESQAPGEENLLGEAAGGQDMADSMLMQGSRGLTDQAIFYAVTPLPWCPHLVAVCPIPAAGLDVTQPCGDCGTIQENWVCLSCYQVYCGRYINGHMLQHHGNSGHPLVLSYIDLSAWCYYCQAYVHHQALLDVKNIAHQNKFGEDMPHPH
How it was run: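 Two-step fluorogenic read-out: enzyme deacetylates 50 μM RHKK(Ac)AMC for 1 h at 30° C in pH 8.0 Tris buffer with BSA and 1% DMSO, then developer cleavage gives signal at Ex 360/Em 460. Enzyme: 0.3 ng/ul recombinant full-length human HDAC6, GST-tagged, Sf9-expressed.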

Human HDAC5 = target: T2, Human HDAC5 (Homo sapiens, UniProt Q9UQL6); experiment: HDAC5 biochemical assay, class IIa-specific substrate; details: read-out: HDAC Isoform IC50 (nM) 5
T2 construct: full length with C-terminal His tag, MW=51.1 kDa; His (C); host or cells: baculovirus expression system
How it was run: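 Full-length C-terminal His-tagged HDAC5 from baculovirus (0.05 ng/ul) incubated 30 min at room temperature with 50 μM Boc-Lys(trifluoroacetyl)-AMC and compound, Tris pH 8.0 buffer with BSA, 1% DMSO. Developer then releases AMC; fluorescence 360/460 nm.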

Human HDAC9 = target: T3, Human HDAC9 (Homo sapiens, UniProt Q9UKV0); experiment: HDAC9 biochemical assay, class IIa-specific substrate; details: read-out: HDAC Isoform IC50 (nM) 9
T3 construct: amino acids 604-1066 with C-terminal His tag; His (C); host or cells: baculovirus expression system
How it was run: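 HDAC9 residues 604-1066 (C-terminal His tag, baculovirus-expressed) at 0.06 ng/ul with 50 μM class IIa substrate Boc-Lys(trifluoroacetyl)-AMC in Tris-HCl pH 8.0 buffer with BSA and 1% DMSO. 30 min at room temperature, then developer added; fluorescence read at 360/460 nm Ex/Em.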

Human HDAC7 = target: T4, Human HDAC7 (Homo sapiens, UniProt Q8WUI4); experiment: HDAC7 biochemical assay, class IIa-specific substrate; details: read-out: HDAC Isoform IC50 (nM) 7
T4 construct: (a.a. 518-end) with N-terminal GST tag; GST (N); host or cells: baculovirus expression system
T4 sequence (Q8WUI4 518-952 limits assumed): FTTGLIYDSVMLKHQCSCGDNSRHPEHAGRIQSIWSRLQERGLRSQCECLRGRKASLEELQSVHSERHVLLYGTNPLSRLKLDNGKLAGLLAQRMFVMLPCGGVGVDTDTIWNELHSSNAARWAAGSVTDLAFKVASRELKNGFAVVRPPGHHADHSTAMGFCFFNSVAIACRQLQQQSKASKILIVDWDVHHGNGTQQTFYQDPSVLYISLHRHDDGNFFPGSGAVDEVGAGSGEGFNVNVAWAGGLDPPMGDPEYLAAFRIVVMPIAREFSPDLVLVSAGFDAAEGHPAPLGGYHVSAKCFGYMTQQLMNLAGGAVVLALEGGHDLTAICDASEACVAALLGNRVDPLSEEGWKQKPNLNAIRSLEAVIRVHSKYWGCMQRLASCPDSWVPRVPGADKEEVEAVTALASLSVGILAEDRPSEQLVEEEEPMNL
How it was run: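 GST-tagged HDAC7 (a.a. 518-end, baculovirus-expressed) at 0.001 ng/ul with 50 μM Boc-Lys(trifluoroacetyl)-AMC substrate, 30 min at room temperature in pH 8.0 Tris buffer with BSA, 1% DMSO final. Developer then releases AMC; fluorescence read at 360/460 nm.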

Human HDAC1 = target: T5, Human HDAC1 (Homo sapiens, UniProt Q13547); experiment: HDAC1 biochemical assay, AMC-labeled peptide substrate; details: read-out: HDAC Isoform IC50 (nM) 1
T5 construct: full length with C-terminal His-tag and C-terminal FLAG-tag; His (C); FLAG (C); host or cells: baculovirus expression system
How it was run: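 Baculovirus-expressed full-length human HDAC1 with His and FLAG tags, 0.3 ng/ul, incubated 1 h at 30° C with compound and 50 μM RHKK(Ac)AMC in Tris pH 8.0 buffer with BSA and 1% DMSO. Developer then releases AMC from deacetylated substrate; fluorescence read at 360/460 nm.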

Human HDAC4 = target: T6, Human HDAC4 (Homo sapiens, UniProt P56524); experiment: HDAC4 biochemical assay, class IIa-specific substrate; details: read-out: HDAC Isoform IC50 (nM) 4
T6 construct: amino acids 627-1085 with N-terminal GST tag; GST (N); host or cells: baculovirus expression system
How it was run: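 GST-tagged human HDAC4 (aa 627-1085, baculovirus) at 0.004 ng/ul was incubated 30 min at room temperature with 50 μM class IIa-specific substrate BOC-Lys(trifluoroacetyl)-AMC in Tris-HCl pH 8.0 buffer with BSA, 1% DMSO. Developer then released AMC, read at 360/460 nm.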

T6 sequence (P56524 627-1084 limits assumed): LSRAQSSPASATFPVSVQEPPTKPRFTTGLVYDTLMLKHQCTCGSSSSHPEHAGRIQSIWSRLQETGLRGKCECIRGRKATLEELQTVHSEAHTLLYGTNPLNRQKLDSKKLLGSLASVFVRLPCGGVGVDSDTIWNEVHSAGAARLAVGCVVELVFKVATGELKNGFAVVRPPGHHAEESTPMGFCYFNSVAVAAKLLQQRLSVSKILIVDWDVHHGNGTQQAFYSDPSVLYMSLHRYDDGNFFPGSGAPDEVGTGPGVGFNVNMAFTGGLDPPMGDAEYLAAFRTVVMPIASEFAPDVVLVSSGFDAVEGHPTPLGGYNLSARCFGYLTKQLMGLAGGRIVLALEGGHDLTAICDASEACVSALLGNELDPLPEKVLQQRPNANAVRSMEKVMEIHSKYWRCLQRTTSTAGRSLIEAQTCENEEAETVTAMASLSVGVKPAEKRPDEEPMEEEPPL
T5 sequence (Q13547 whole entry, canonical isoform): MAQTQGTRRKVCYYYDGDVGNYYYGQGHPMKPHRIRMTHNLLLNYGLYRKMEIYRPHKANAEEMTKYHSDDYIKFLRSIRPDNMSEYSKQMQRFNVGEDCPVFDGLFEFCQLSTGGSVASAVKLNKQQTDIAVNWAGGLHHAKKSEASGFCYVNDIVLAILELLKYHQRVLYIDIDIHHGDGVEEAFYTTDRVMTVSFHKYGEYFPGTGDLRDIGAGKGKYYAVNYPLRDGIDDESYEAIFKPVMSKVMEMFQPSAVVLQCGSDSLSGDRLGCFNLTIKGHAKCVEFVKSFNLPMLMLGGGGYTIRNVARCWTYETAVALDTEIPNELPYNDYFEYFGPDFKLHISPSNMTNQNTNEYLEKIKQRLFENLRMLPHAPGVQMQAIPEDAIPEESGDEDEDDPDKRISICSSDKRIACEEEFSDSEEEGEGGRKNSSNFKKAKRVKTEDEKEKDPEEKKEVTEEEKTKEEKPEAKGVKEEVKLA
T3 sequence (Q9UKV0 604-1066 isoform Q9UKV0-5): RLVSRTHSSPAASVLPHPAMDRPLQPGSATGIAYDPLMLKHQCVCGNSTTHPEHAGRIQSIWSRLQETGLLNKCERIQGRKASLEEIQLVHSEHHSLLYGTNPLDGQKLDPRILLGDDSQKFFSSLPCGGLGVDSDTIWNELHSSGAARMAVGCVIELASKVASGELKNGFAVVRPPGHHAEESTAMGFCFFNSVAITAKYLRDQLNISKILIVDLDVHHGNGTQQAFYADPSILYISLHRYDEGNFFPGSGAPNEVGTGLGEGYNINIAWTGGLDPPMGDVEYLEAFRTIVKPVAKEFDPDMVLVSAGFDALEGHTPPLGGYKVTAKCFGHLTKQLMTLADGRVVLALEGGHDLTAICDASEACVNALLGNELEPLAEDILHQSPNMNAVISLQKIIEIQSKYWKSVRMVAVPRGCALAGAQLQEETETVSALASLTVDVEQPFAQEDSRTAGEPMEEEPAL
T2 sequence (Q9UQL6 656-1122 limits assumed): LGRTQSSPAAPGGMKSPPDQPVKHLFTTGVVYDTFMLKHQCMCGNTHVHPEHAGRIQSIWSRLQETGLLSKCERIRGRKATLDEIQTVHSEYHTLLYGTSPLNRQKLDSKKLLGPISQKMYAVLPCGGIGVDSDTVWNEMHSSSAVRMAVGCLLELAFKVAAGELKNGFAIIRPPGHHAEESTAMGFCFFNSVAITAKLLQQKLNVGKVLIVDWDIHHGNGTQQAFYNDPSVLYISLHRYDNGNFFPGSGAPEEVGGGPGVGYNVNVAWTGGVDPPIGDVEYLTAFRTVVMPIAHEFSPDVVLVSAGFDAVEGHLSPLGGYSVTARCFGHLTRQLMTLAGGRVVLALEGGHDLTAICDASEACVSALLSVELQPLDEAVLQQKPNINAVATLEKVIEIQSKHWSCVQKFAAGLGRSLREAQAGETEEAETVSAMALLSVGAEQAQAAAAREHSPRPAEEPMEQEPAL

SMILES: Cn1cnc2cc(N(Cc3ccc(-c4noc(C(F)(F)F)n4)s3)c3cnccn3)ncc21 [Example AE, N-{3-Methyl-3H-imidazo[4,5-c]pyridin-6-yl}-N-({5-[5-(trifluoromethyl)-1,2,4-oxadiazol-3-yl]thiophen-2-yl}methyl)pyrazin-2-amine]
- IC50 (Recombinant human HDAC6): ≤ 10000 nM
- IC50 (Human HDAC5): ≤ 500 nM
- IC50 (Human HDAC9): ≤ 10000 nM
- IC50 (Human HDAC7): ≤ 1000 nM
- IC50 (Human HDAC1): > 10000 nM
- IC50 (Human HDAC4): ≤ 500 nM

SMILES: COc1ncncc1N(Cc1ccc(-c2noc(C(F)(F)F)n2)s1)c1cnccn1 [Example CY, 4-Methoxy-N-(pyrazin-2-yl)-N-({5-[5-(trifluoromethyl)-1,2,4-oxadiazol-3-yl]thiophen-2-yl}methyl)pyrimidin-5-amine]
- IC50 (Recombinant human HDAC6): ≤ 10000 nM
- IC50 (Human HDAC5): ≤ 500 nM
- IC50 (Human HDAC9): ≤ 10000 nM
- IC50 (Human HDAC7): ≤ 10000 nM
- IC50 (Human HDAC1): > 10000 nM
- IC50 (Human HDAC4): ≤ 1000 nM

SMILES: FC(F)(F)c1nc(-c2ccc(CN(c3cnccn3)c3cnc(-c4ccco4)cn3)s2)no1 [Example BJ, 5-(Furan-2-yl)-N-(pyrazin-2-yl)-N-({5-[5-(trifluoromethyl)-1,2,4-oxadiazol-3-yl]thiophen-2-yl}methyl)pyrazin-2-amine]
- IC50 (Recombinant human HDAC6): ≤ 10000 nM
- IC50 (Human HDAC5): ≤ 10000 nM
- IC50 (Human HDAC9): ≤ 10000 nM
- IC50 (Human HDAC7): ≤ 10000 nM
- IC50 (Human HDAC1): ≤ 10000 nM
- IC50 (Human HDAC4): ≤ 1000 nM

SMILES: FC(F)(F)c1nc(-c2ccc(CN(c3cnccn3)c3cncnc3C3CC3)s2)no1 [Example CZ, 4-Cyclopropyl-N-(pyrazin-2-yl)-N-({5-[5-(trifluoromethyl)-1,2,4-oxadiazol-3-yl]thiophen-2-yl}methyl)pyrimidin-5-amine]
- IC50 (Recombinant human HDAC6): ≤ 10000 nM
- IC50 (Human HDAC5): ≤ 500 nM
- IC50 (Human HDAC9): ≤ 1000 nM
- IC50 (Human HDAC7): ≤ 500 nM
- IC50 (Human HDAC1): > 10000 nM
- IC50 (Human HDAC4): ≤ 500 nM

SMILES: FC(F)(F)c1nc(-c2ccc(CN(c3cnccn3)c3ccc4nncn4n3)s2)no1 [Example DU, N-{[1,2,4]Triazolo[4,3-b]pyridazin-6-yl}-N-({5-[5-(trifluoromethyl)-1,2,4-oxadiazol-3-yl]thiophen-2-yl}methyl)pyrazin-2-amine]
- IC50 (Recombinant human HDAC6): ≤ 10000 nM
- IC50 (Human HDAC5): ≤ 10000 nM
- IC50 (Human HDAC9): ≤ 10000 nM
- IC50 (Human HDAC7): ≤ 1000 nM
- IC50 (Human HDAC1): > 10000 nM
- IC50 (Human HDAC4): ≤ 10000 nM

SMILES: FC(F)(F)c1ccc(N(Cc2ccc(-c3noc(C(F)(F)F)n3)s2)c2cnccn2)nc1 [Example AB, N-({5-[5-(Trifluoromethyl)-1,2,4-oxadiazol-3-yl]thiophen-2-yl}methyl)-N-[5-(trifluoromethyl)pyridin-2-yl]pyrazin-2-amine]
- IC50 (Recombinant human HDAC6): ≤ 10000 nM
- IC50 (Human HDAC5): ≤ 10000 nM
- IC50 (Human HDAC9): ≤ 10000 nM
- IC50 (Human HDAC7): > 10000 nM
- IC50 (Human HDAC1): > 10000 nM
- IC50 (Human HDAC4): ≤ 10000 nM

SMILES: FC(F)(F)c1cnnc(N(Cc2ccc(-c3noc(C(F)(F)F)n3)s2)c2cncnc2)c1 [Example EQ, N-(Pyrimidin-5-yl)-5-(trifluoromethyl)-N-({5-[5-(trifluoromethyl)-1,2,4-oxadiazol-3-yl]thiophen-2-yl}methyl)pyridazin-3-amine]
- IC50 (Recombinant human HDAC6): ≤ 1000 nM
- IC50 (Human HDAC5): ≤ 10000 nM
- IC50 (Human HDAC9): ≤ 10000 nM
- IC50 (Human HDAC7): ≤ 10000 nM
- IC50 (Human HDAC1): > 10000 nM
- IC50 (Human HDAC4): ≤ 10000 nM

SMILES: CN(C)C(=O)c1cncc(N(Cc2ccc(-c3noc(C(F)(F)F)n3)s2)c2cnccn2)n1 [Example BS, N,N-Dimethyl-6-[(pyrazin-2-yl)({5-[5-(trifluoromethyl)-1,2,4-oxadiazol-3-yl]thiophen-2-yl}methyl)amino]pyrazine-2-carboxamide]
- IC50 (Recombinant human HDAC6): ≤ 10000 nM
- IC50 (Human HDAC5): ≤ 10000 nM
- IC50 (Human HDAC9): ≤ 10000 nM
- IC50 (Human HDAC7): ≤ 10000 nM
- IC50 (Human HDAC1): > 10000 nM
- IC50 (Human HDAC4): ≤ 10000 nM

SMILES: FC(F)(F)c1nc(-c2ccc(CN(c3cnccn3)c3ccnc4ccnn34)s2)no1 [Example CF, N-{Pyrazolo[1,5-a]pyrimidin-7-yl}-N-({5-[5-(trifluoromethyl)-1,2,4-oxadiazol-3-yl]thiophen-2-yl}methyl)pyrazin-2-amine]
- IC50 (Recombinant human HDAC6): ≤ 10000 nM
- IC50 (Human HDAC5): ≤ 10000 nM
- IC50 (Human HDAC9): ≤ 10000 nM
- IC50 (Human HDAC7): ≤ 10000 nM
- IC50 (Human HDAC1): > 10000 nM
- IC50 (Human HDAC4): ≤ 1000 nM

SMILES: FC(F)(F)c1nc(-c2ccc(CN(c3cnccn3)c3ccc4ncccc4n3)s2)no1 [Example X, N-(Pyrazin-2-yl)-N-({5-[5-(trifluoromethyl)-1,2,4-oxadiazol-3-yl]thiophen-2-yl}methyl)-1,5-naphthyridin-2-amine]
- IC50 (Recombinant human HDAC6): ≤ 1000 nM
- IC50 (Human HDAC5): ≤ 1000 nM
- IC50 (Human HDAC9): ≤ 1000 nM
- IC50 (Human HDAC7): ≤ 1000 nM
- IC50 (Human HDAC1): > 10000 nM
- IC50 (Human HDAC4): ≤ 500 nM

SMILES: FC(F)(F)c1nc(-c2ccc(CN(c3cnccn3)c3nccc4cnccc34)s2)no1 [Example AK, N-(Pyrazin-2-yl)-N-({5-[5-(trifluoromethyl)-1,2,4-oxadiazol-3-yl]thiophen-2-yl}methyl)-2,6-naphthyridin-1-amine]
- IC50 (Recombinant human HDAC6): ≤ 1000 nM
- IC50 (Human HDAC5): ≤ 500 nM
- IC50 (Human HDAC9): ≤ 500 nM
- IC50 (Human HDAC7): ≤ 500 nM
- IC50 (Human HDAC1): > 10000 nM
- IC50 (Human HDAC4): ≤ 500 nM

SMILES: FC(F)(F)c1nc(-c2ccc(CN(c3cnc(C4CC4)nc3)c3cnccn3)s2)no1 [Example CU, 2-Cyclopropyl-N-(pyrazin-2-yl)-N-({5-[5-(trifluoromethyl)-1,2,4-oxadiazol-3-yl]thiophen-2-yl}methyl)pyrimidin-5-amine]
- IC50 (Recombinant human HDAC6): ≤ 10000 nM
- IC50 (Human HDAC5): ≤ 1000 nM
- IC50 (Human HDAC9): ≤ 10000 nM
- IC50 (Human HDAC7): ≤ 1000 nM
- IC50 (Human HDAC1): > 10000 nM
- IC50 (Human HDAC4): ≤ 500 nM
